Source: paper PMC6332200, “Isolation and Identification of Cytotoxic Compounds from Aeschynomene fascicularis, a Mayan Medicinal Plant” (Molecules, 2015)
Where “and” joins values, the source holds several entries; their conditions need not be identical. Equal entries are not always repeated.

Experiments:
[1] = test system: Hep-2; assay: Cytotoxicity MTT assay, Hep-2 laryngeal carcinoma; assay type: cell-based, human; conditions: Homo sapiens; Hep-2, MTT, 72 h; read-out: Cytotoxic activity CC50
Experimental: (§1) Three types of cancer cell lines obtained from the American Type Culture Collection (ATCC) were cultured: two oral-laryngeal cancer cell lines, nasopharynx carcinoma (KB, ATCC-CCL-17) and laryngeal carcinoma (Hep-2, ATCC-CCL-23); two cervix-uterine cancer cell lines, cervix adenocarcinoma (HeLa, ATCC-CCL-2) and cervix squamous carcinoma (SiHa, ATCC-HTB-35); and two prostate cancer cell lines, prostate carcinoma (DU-145, ATCC-HTB-81) and prostate adenocarcinoma (PC-3, ATCC-CRL-1435); along with one normal cell line (MDCK, ATCC-CCL-34). The cells were cultured in sterile Costar T75 flasks containing DMEM (Gibco, Hong Kong, China), supplemented with fetal bovine serum (10%, v/v), 100 U/mL penicillin G, and […] streptomycin at 37 °C in an atmosphere of 5% CO2 (95% humidity). At 70%–80% confluence, cells were detached from the cultured flask by treatment with 0.05% trypsin-EDTA (Gibco), and a suspension of 5 × 10^4 cells/mL of viable cells was seeded in a 96-well microtiter plate (Costar, Washington, DC, USA) and incubated. Cytotoxicity was assessed by the MTT assay as previously described by Rahman. When cells reached 90% confluence in a microtiter plate, the DMEM was replaced with fresh medium and cells were incubated with compounds at various concentrations. […] The medium was aspirated, and the formazan product was solubilized with acidified isopropanol (0.4 N HCl). The amount of MTT-formazan is directly proportional to the number of living cells and was determined by measuring the optical density (OD) at 590 nm using a bioassay reader (Bio-Rad). All determinations were performed in triplicate. The cytotoxic and antiproliferative activities of tested compounds were calculated as the percentage of cells killed or the percentage of inhibition of cell proliferation, respectively, using the equation: growth inhibition (%) = (ODcontrol − ODsample/ODcontrol) × 100. […] In addition, the level of cytotoxicity on normal cells was evaluated by determining the selectivity index (SI) of each compound, which is calculated as the ratio of cytotoxicity or reduced cell growth on normal cells to cancer cells (SI = normal cells/cancer cells).

[2] = test system: HeLa; assay: Antiproliferative sulforhodamine B assay, HeLa; assay type: cell-based, human; conditions: for IC50: Homo sapiens, HeLa, SRB, 48 h
Experimental: (§2) Three types of cancer cell lines obtained from the American Type Culture Collection (ATCC) were cultured: two oral-laryngeal cancer cell lines, nasopharynx carcinoma (KB, ATCC-CCL-17) and laryngeal carcinoma (Hep-2, ATCC-CCL-23); two cervix-uterine cancer cell lines, cervix adenocarcinoma (HeLa, ATCC-CCL-2) and cervix squamous carcinoma (SiHa, ATCC-HTB-35); and two prostate cancer cell lines, prostate carcinoma (DU-145, ATCC-HTB-81) and prostate adenocarcinoma (PC-3, ATCC-CRL-1435); along with one normal cell line (MDCK, ATCC-CCL-34). The cells were cultured in sterile Costar T75 flasks containing DMEM (Gibco, Hong Kong, China), supplemented with fetal bovine serum (10%, v/v), 100 U/mL penicillin G, and […] streptomycin at 37 °C in an atmosphere of 5% CO2 (95% humidity). At 70%–80% confluence, cells were detached from the cultured flask by treatment with 0.05% trypsin-EDTA (Gibco), and a suspension of 5 × 10^4 cells/mL of viable cells was seeded in a 96-well microtiter plate (Costar, Washington, DC, USA) and incubated.
(§3) The growth inhibition of cancer cells was evaluated by the sulforhodamine B method. When cells reached 70% confluence in a microtiter plate, the medium was replaced with DMEM 5% FBS and samples at various concentrations. After 48 h, the medium was discarded, and cells were fixed by adding 50 μL of 10% trichloroacetic acid (TCA, Sigma-Aldrich Chemical, St. Louis, MO, USA). The cells were then incubated at 4 °C for 30 min; TCA was drained off, and the plates were left to dry. Then, 50 μL of SRB stain (10 mg of 1% acetic acid, Sigma) were added to each well for 30 min. Finally, the plates were washed four times with 1% acetic acid (100 μL). The OD was measured at 540 nm using an ELISA reader (Bio-Rad). Docetaxel was used as a positive control, whereas cells incubated only with 0.05% of DMSO were used as a negative control. All determinations were performed in triplicate.
(§4) The cytotoxic and antiproliferative activities of tested compounds were calculated as the percentage of cells killed or the percentage of inhibition of cell proliferation, respectively, using the equation: growth inhibition (%) = (ODcontrol − ODsample/ODcontrol) × 100. […] In addition, the level of cytotoxicity on normal cells was evaluated by determining the selectivity index (SI) of each compound, which is calculated as the ratio of cytotoxicity or reduced cell growth on normal cells to cancer cells (SI = normal cells/cancer cells). It is generally considered that biological efficacy is not due to general toxicity when SI ≥ 10 [17].

[3] = test system: KB; assay: Cytotoxicity MTT assay, KB nasopharynx carcinoma; assay type: cell-based, human; conditions: Homo sapiens; KB, MTT, 72 h; read-out: Cytotoxic activity CC50
Experimental: as §1

[4] = test system: DU-145; assay: Antiproliferative sulforhodamine B assay, DU-145; assay type: cell-based, human; conditions: for IC50: Homo sapiens, DU-145, SRB, 48 h
Experimental: as §2, §3, §4

[5] = test system: HeLa; assay: Cytotoxicity MTT assay, HeLa cervix adenocarcinoma; assay type: cell-based, human; conditions: Homo sapiens; HeLa, MTT, 72 h; read-out: Cytotoxic activity CC50
Experimental: as §1

[6] = test system: PC-3; assay: Cytotoxicity MTT assay, PC-3 prostate adenocarcinoma; assay type: cell-based, human; conditions: Homo sapiens; PC-3, MTT, 72 h; read-out: Cytotoxic activity CC50
Experimental: as §1

[7] = as above; assay type: cell-based, human; conditions: human, MDCK normal cells versus PC-3 prostate adenocarcinoma cells; CC50 MDCK normal cells / PC-3; read-out: Selectivity index (SI) of cytotoxic activity
Experimental: as §1

[8] = Cytotoxicity MTT assay, MDCK normal cell line; assay type: cell-based; conditions: dog, MDCK cells (normal cell line), read-out: Cytotoxic activity CC50
Experimental: as §1

[9] = test system: SiHa; assay: Cytotoxicity MTT assay, SiHa cervix squamous carcinoma; assay type: cell-based, human; conditions: Homo sapiens; SiHa, MTT, 72 h; read-out: Cytotoxic activity CC50
Experimental: as §1

[10] = test system: MDCK; assay: Antiproliferative sulforhodamine B assay, MDCK normal cell line; assay type: cell-based; conditions: Canis lupus familiaris, SRB, 48 h
Experimental: as §2, §3, §4

[11] = test system: KB; assay: Antiproliferative sulforhodamine B assay, KB; assay type: cell-based, human; conditions: for IC50: Homo sapiens, KB, SRB, 48 h; for Selectivity index (SI) of antiproliferative activity: IC50 MDCK normal cells / KB
Experimental: as §2, §3, §4

[12] = test system: Hep-2; assay: Antiproliferative sulforhodamine B assay, Hep-2; assay type: cell-based, human; conditions: for IC50: Homo sapiens, Hep-2, SRB, 48 h
Experimental: as §2, §3, §4

[13] = test system: DU-145; assay: Cytotoxicity MTT assay, DU-145 prostate carcinoma; assay type: cell-based, human; conditions: Homo sapiens; DU-145, MTT, 72 h; read-out: Cytotoxic activity CC50
Experimental: as §1

[14] = Cytotoxicity MTT assay, DU-145 prostate carcinoma; assay type: cell-based, human; conditions: human, MDCK normal cells versus DU-145 prostate carcinoma cells; CC50 MDCK normal cells / DU-145; read-out: Selectivity index (SI) of cytotoxic activity
Experimental: as §1

[15] = test system: SiHa; assay: Antiproliferative sulforhodamine B assay, SiHa; assay type: cell-based, human; conditions: for IC50: Homo sapiens, SiHa, SRB, 48 h; for Selectivity index (SI) of antiproliferative activity: IC50 MDCK normal cells / SiHa
Experimental: as §2, §3, §4

[16] = test system: PC-3; assay: Antiproliferative sulforhodamine B assay, PC-3; assay type: cell-based; conditions: Homo sapiens; PC-3, SRB, 48 h
Experimental: as §2, §3, §4

[17] = test system: tested cell lines; assay: Cytotoxicity and antiproliferative bioassays, whole panel of tested cell lines; assay type: cell-based; conditions: all tested cell lines
Experimental: as §2, with “At 70%–80% confluence, cells were detached from the cultured flask by treatment with 0.05% trypsin-EDTA (Gibco), and a suspension of 5 × 10^4 cells/mL of viable cells was seeded in a 96-well microtiter plate (Costar, Washington, DC, USA) and incubated.” left out
Cytotoxicity was assessed by the MTT assay as previously described by Rahman. […] The amount of MTT-formazan is directly proportional to the number of living cells and was determined by measuring the optical density (OD) at 590 nm using a bioassay reader (Bio-Rad). […]
The growth inhibition of cancer cells was evaluated by the sulforhodamine B method. […] The OD was measured at 540 nm using an ELISA reader (Bio-Rad). […]

[18] = Cytotoxicity MTT assay, Hep-2 laryngeal carcinoma; assay type: cell-based, human; conditions: dog MDCK normal cells versus Hep-2 laryngeal carcinoma cells; CC50 MDCK normal cells / Hep-2; read-out: Selectivity index (SI) of cytotoxic activity
Experimental: as §1

[19] = Cytotoxicity MTT assay, KB nasopharynx carcinoma; assay type: cell-based, human; conditions: human, MDCK normal cells versus KB nasopharynx carcinoma cells; CC50 MDCK normal cells / KB; read-out: Selectivity index (SI) of cytotoxic activity
Experimental: as §1

[20] = Cytotoxicity MTT assay, HeLa cervix adenocarcinoma; assay type: cell-based, human; conditions: human, MDCK normal cells versus HeLa cervix adenocarcinoma cells; CC50 MDCK normal cells / HeLa; read-out: Selectivity index (SI) of cytotoxic activity
Experimental: as §1

[21] = Cytotoxicity MTT assay, SiHa cervix squamous carcinoma; assay type: cell-based, human; conditions: human; CC50 MDCK normal cells / SiHa; read-out: Selectivity index (SI) of cytotoxic activity
Experimental: as §1

Row | IC50 [2] | IC50 [4] | IC50 [11] | IC50 [16] | Compound | CC50 [1] | CC50 [3] | CC50 [5] | CC50 [6] | selectivity ratio at 72 h [7] | CC50 at 72 h [8] | CC50 [9] | IC50 [10] | Selectivity index (SI) of antiproliferative activity [11] | IC50 [12] | CC50 [13] | selectivity ratio at 72 h [14] | IC50 [15] | selectivity ratio at 72 h [18] | selectivity ratio at 72 h [19] | selectivity ratio at 72 h [20] | other results
1 | > 100 µM | > 100 µM | 6 µg/mL and 16 µM | > 100 µM | CC(C)=CCc1cc(C(=O)/C=C/c2ccccc2)c(O)c(CC=C(C)C)c1O [Compound 2, spinochalcone A] | > 100 µg/mL | > 100 µg/mL | > 100 µg/mL | 9.7 µg/mL and 26 µM | 9.4 | 92.1 µg/mL and 245 µM | > 100 µg/mL | 18.7 µg/mL and 50 µM | 3.1 | > 100 µM | 6.1 µg/mL and 16.3 µM | 15 | > 100 µM |  |  |  | 
2 | > 100 µM | > 100 µM | > 100 µM | > 100 µM | CC(C)=CCc1c(O)c(C(=O)/C=C/c2ccccc2)cc2c1OC(C)(C)C=C2 [Compound 1, spinochalcone C] | > 100 µg/mL | > 100 µg/mL | > 100 µg/mL | > 100 µg/mL |  | > 100 µg/mL | > 100 µg/mL | > 100 µM |  | > 100 µM | > 100 µg/mL |  | > 100 µM |  |  |  | Active concentration on tested cell lines (no activity to the maximum concentration) [17]: > 100 µM
3 | 0.03 µg/mL and 40 nM | 0.01 µg/mL and 20 nM | 0.04 µg/mL and 60 nM | 0.007 µg/mL and 10 nM | CC(=O)O[C@@]12CO[C@@H]1C[C@H](O)[C@@]1(C)C(=O)[C@H](O)C3=C(C)[C@@H](OC(=O)[C@H](O)[C@@H](NC(=O)OC(C)(C)C)c4ccccc4)C[C@@](O)([C@@H](OC(=O)c4ccccc4)[C@H]21)C3(C)C [Docetaxel, reference compound] | 0.07 µg/mL and 100 nM | 0.2 µg/mL and 300 nM | 0.19 µg/mL and 250 nM | 0.07 µg/mL and 100 nM | 14 | 1.1 µg/mL and 1.4 µM | 0.17 µg/mL and 220 nM | 0.11 µg/mL and 140 nM | 2.3 | 0.05 µg/mL and 70 nM | 0.007 µg/mL and 10 nM | 140 | 0.07 µg/mL and 100 nM | 14 | 4.6 | 5.6 | Selectivity index (SI) of antiproliferative activity ([2]; IC50 MDCK normal cells / HeLa): 3.5; Selectivity index (SI) of antiproliferative activity ([4]; IC50 MDCK normal cells / DU-145): 7; selectivity ratio at 72 h [21]: 6.3; Selectivity index (SI) of antiproliferative activity ([12]; IC50 MDCK normal cells / Hep-2): 2.0; Selectivity index (SI) of antiproliferative activity [15]: 1.4
4 | > 100 µM | > 100 µM | > 100 µM | > 100 µM | C=CC(C)(C)c1cc(C2COc3cc(O)ccc3C2)c(O)c(O)c1OC (stereo not drawn) [Compound 4, secundiflorol G] | 3.9 µg/mL and 11 µM | 5.3 µg/mL and 15 µM | 8.1 µg/mL and 23 µM | 16.5 µg/mL and 46.4 µM | 1.8 | 29.7 µg/mL and 83.4 µM | 14.7 µg/mL and 41.3 µM | 25.4 µg/mL and 72 µM |  | > 100 µM | 21.5 µg/mL and 60.6 µM | 1.3 | 21.2 µg/mL and 60 µM | 7.6 | 5.5 | 3.6 | selectivity ratio at 72 h [21]: 2; Selectivity index (SI) of antiproliferative activity [15]: 1.2
